Assay results: PMC5011342, “A high throughput drug screening assay to identify compounds that promote oligodendrocyte differentiation using acutely dissociated and purified oligodendrocyte precursor cells” (BMC Research Notes, 2016)
Read-outs that look alike come from different tables or passages of the source.

Columns and labels:
[1] = tested on: acutely dissociated and purified rat OPCs; assay: Acute OL differentiation assay (MBP expression/cell, immunofluorescent image quantification); assay type: cell-based; conditions: sheet "All OLga data"; for activation at 0.08 µM / activation at 0.4 µM / activation at 2 µM / activation at 10 µM: Rattus norvegicus
Outline: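 This acute differentiation assay used purified rat OPCs from postnatal day 6–7 pups, seeded into PDL/laminin-coated 96-well plates in differentiation medium lacking PDGF and FGF. Compounds were applied in quadruplicate after a 1–2 h preincubation at 37 °C, 10 % CO2, with 0.1 % DMSO negative and 40 ng/ml T3 positive controls in eight wells. After fixation on DIV4, anti-MBP immunofluorescence images yielded MBP expression/cell.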

[2] = tested on: expanded OPCs; assay: cells; conditions: for 0.1 µM (% DMSO) / 1 µM (% DMSO) / 10 µM (% DMSO): alamarBlue viability of expanded OPCs; for 0.1 µM (% DMSO): compound at 0.1 µM; for 1 µM (% DMSO): compound at 1 µM; for 10 µM (% DMSO): compound at 10 µM; for viability at 0.1 µM / viability at 1 µM / viability at 10 µM: Rattus norvegicus, 72 h
Outline: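 Toxicity screen: compounds added at 0.1, 1 and 10 µM to PDGF-AA-expanded OPCs in 96-well plates, 3-day incubation at 37 °C, 10% CO2, then alamarBlue 1:10 for 4 h with fluorescence readout. Results set screening doses of 10/2, 2/0.4 or 0.4/0.08 µM.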

[3] = test compound at 0.4 uM, MBP expression relative to quetiapine, NCC library screen, read-out: 0.4 uM (% Quet)
[4] = 2 uM test compound, relative to quetiapine, read-out: OL differentiation, 2 uM (% Quet)
[5] = 10 uM test compound, relative to quetiapine, read-out: OL differentiation, 10 uM (% Quet)
[6] = read-out: 0.1 µM (% DMSO), alamarBlue viability of expanded OPCs, compound at 0.1 µM, sheet All Tox data
[7] = read-out: 1 µM (% DMSO), alamarBlue viability of expanded OPCs, compound at 1 µM, sheet All Tox data
[8] = read-out: 10 µM (% DMSO), alamarBlue viability of expanded OPCs, compound at 10 µM, sheet All Tox data
[9] = read-out: 0.1 µM (% DMSO), alamarBlue viability, NCC library compound at 0.1 µM, sheet "All Tox data"
[10] = read-out: 1 µM (% DMSO), alamarBlue viability, NCC library compound at 1 µM, sheet "All Tox data"
[11] = read-out: 10 µM (% DMSO), alamarBlue viability, NCC library compound at 10 µM, sheet "All Tox data"
[12] = test compound at 2 uM, NCC library screen, relative to quetiapine, read-out: 2 uM (% Quet)
[13] = test compound at 10 uM, NCC library screen, relative to quetiapine, read-out: 10 uM (% Quet)
[14] = 0.4 uM test compound, relative to quetiapine, read-out: OL differentiation, 0.4 uM (% Quet)
[15] = test compound at 2 uM, MBP expression relative to quetiapine, NCC library screen, read-out: 2 uM (% Quet)
[16] = test compound at 10 uM, MBP expression relative to quetiapine, NCC library screen, read-out: 10 uM (% Quet)

Row | SMILES | 0.1 µM (% DMSO) ([2]; relative to DMSO control) | 1 µM (% DMSO) ([2]; relative to DMSO control) | 10 µM (% DMSO) ([2]; relative to DMSO control) | activation at 2 µM [1, 4] [%] | activation at 10 µM [1, 5] [%] | viability at 0.1 µM [2, 6] [%] | viability at 1 µM [2, 7] [%] | viability at 10 µM [2, 8] [%] | further results
1 | CC(C)n1c(/C=C/C(O)CC(O)CC(=O)O)c(-c2ccc(F)cc2)c2ccccc21 (stereo not shown) [Fluvastatin] | 96.9 | 53.3 | 9.3 | – | – | – | – | – | activation at 0.08 µM ([1]; test compound at 0.08 uM, MBP expression relative to quetiapine, NCC library screen, read-out: 0.08 uM (% Quet)): -66.1%; activation at 0.4 µM [1, 3]: -73.4%
2 | Cc1[nH]cnc1CN1CCc2c(c3ccccc3n2C)C1=O [Alosetron] | – | – | – | -24 | -21.2 | 106 | 91.2 | 96.3 | –
3 | CC(=O)NCCCCCCNC(C)=O [Hexamethylene bisacetamide] | – | – | – | 4.1 | 12.8 | 80.5 | 83.1 | 87.3 | –
4 | CC(=O)[C@H]1CC[C@H]2[C@@H]3CCC4=CC(=O)CC[C@]4(C)[C@H]3CC[C@]12C [Progesterone] | – | – | – | 21.9 | 23.3 | 88.2 | 102 | 113 | –
5 | CCCCC(=O)N(Cc1ccc(-c2ccccc2-c2nnn[nH]2)cc1)[C@H](C(=O)O)C(C)C [Valsartan] | – | – | – | 10.7 | -1 | – | – | – | viability at 0.1 µM [2, 9]: 86.6%; viability at 1 µM [2, 10]: 84%; viability at 10 µM [2, 11]: 82.9%
6 | CN1CCN2c3ncccc3Cc3ccccc3C2C1 (stereo not shown) [Mirtazapine] | – | – | – | – | – | – | – | – | activation at 0.4 µM ([1]; test compound at 0.4 uM, NCC library screen, relative to quetiapine, read-out: 0.4 uM (% Quet)): -26.7%; activation at 2 µM [1, 12]: -35.7%; viability at 0.1 µM [2, 9]: 94.4%; viability at 1 µM [2, 10]: 73%; viability at 10 µM [2, 11]: 60.1%
7 | CC1COc2c(N3CCN(C)CC3)c(F)cc3c(=O)c(C(=O)O)cn1c23 (stereo not shown) [Ofloxacin] | 93.4 | 91.6 | 89.4 | -4.3 | 4.9 | 95.3 | 91.5 | 99.5 | activation at 2 µM [1, 12]: 3.8%; activation at 10 µM [1, 13]: -3.8%
8 | Nc1c2c(nc3c1CCC3)CCCC2 [Amiridine] | – | – | – | – | – | – | – | – | OL differentiation, 2 uM (% Quet) ([1]; 2 uM test compound, relative to quetiapine): 7.6 % Quet; OL differentiation, 10 uM (% Quet) ([1]; 10 uM test compound, relative to quetiapine): 34.5 % Quet; 0.1 µM (% DMSO) ([2]; sheet All Tox data): 87.3 % DMSO; 1 µM (% DMSO) ([2]; sheet All Tox data): 86.4 % DMSO; 10 µM (% DMSO) ([2]; sheet All Tox data): 89.5 % DMSO
9 | Oc1ccc2c3c1O[C@H]1c4[nH]c5ccccc5c4C[C@@]4(O)[C@@H](C2)N(CC2CC2)CC[C@]314 [Naltrindole] | – | – | – | -35.8 | – | 80.6 | 66.7 | 17.9 | activation at 0.4 µM [1, 14]: -9.9%
10 | CC[N+](C)(C)c1cccc(O)c1 [Edrophonium] | – | – | – | – | – | – | – | – | activation at 2 µM [1, 12]: 10.5%; activation at 10 µM [1, 13]: 10.8%; viability at 0.1 µM [2, 9]: 93%; viability at 1 µM [2, 10]: 91%; viability at 10 µM [2, 11]: 100%
11 | C[C@]12CC[C@H](O)CC1=CC[C@@H]1[C@@H]2CC[C@@]2(C)[C@H]1CC[C@]2(C)O [Methandriol] | – | – | – | 4.1 | -0.6 | 91.2 | 87.5 | 88 | –
12 | O=C1N(c2ccccc2)c2ccccc2C1(Cc1ccncc1)Cc1ccncc1 [Linopirdine] | – | – | – | – | – | – | – | – | activation at 2 µM [1, 12]: -7.9%; activation at 10 µM [1, 13]: -12.7%; viability at 0.1 µM [2, 9]: 90.7%; viability at 1 µM [2, 10]: 94.5%; viability at 10 µM [2, 11]: 86.2%
13 | CCC(C)n1ncn(-c2ccc(N3CCN(c4ccc(OCC5COC(Cn6cncn6)(c6ccc(Cl)cc6Cl)O5)cc4)CC3)cc2)c1=O (stereo not shown) [Itraconazole] | – | – | – | – | – | 86.1 | 29.2 | 26.2 | activation at 0.08 µM ([1]; 0.08 uM test compound, relative to quetiapine, read-out: OL differentiation, 0.08 uM (% Quet)): 2.8%; activation at 0.4 µM [1, 14]: -174%
14 | Nc1nc(F)nc2c1ncn2[C@@H]1O[C@H](CO)[C@@H](O)[C@@H]1O [Fludarabine] | 91.2 | 88.7 | 77.9 | – | – | – | – | – | activation at 2 µM [1, 15]: 18.7%; activation at 10 µM [1, 16]: -12.6%
15 | CC(C)NCC(O)COc1cccc2ccccc12 (stereo not shown) [Propranolol] | 95.6 | 79.5 | 32.7 | – | – | – | – | – | activation at 0.4 µM [1, 3]: 0.38%; activation at 2 µM [1, 15]: -14.5%
16 | NC[C@H](O)c1ccc(O)c(O)c1 [Norepinephrine] | 99.4 | 99.0 | 68.5 | – | – | – | – | – | activation at 2 µM [1, 15]: -1.9%; activation at 10 µM [1, 16]: -78%
17 | COc1c(N2CCNC(C)C2)c(F)cc2c(=O)c(C(=O)O)cn(C3CC3)c12 (stereo not shown) [Gatifloxacin] | 99.4 | 98.0 | 96.4 | – | – | – | – | – | activation at 2 µM [1, 15]: 34.6%; activation at 10 µM [1, 16]: 24.6%
18 | COc1cc(C)c(/C=C/C(C)=C/C=C/C(C)=C/C(=O)O)c(C)c1C [Acitretin] | 101.2 | 141.3 | 148.0 | – | – | – | – | – | activation at 2 µM [1, 15]: 68.7%; activation at 10 µM [1, 16]: 51.4%
19 | Cc1ncc2n1-c1ccc(Cl)cc1C(c1ccccc1F)=NC2 [Midazolam] | – | – | – | -15.2 | -81.7 | 91 | 99.9 | 128 | –
20 | NC(=O)N1c2ccccc2CC(=O)c2ccccc21 [Oxcarbazepine] | – | – | – | -28.9 | -57.8 | 102 | 92 | 73.5 | –
21 | O=C1CN=C(c2ccccc2)c2cc([N+](=O)[O-])ccc2N1 [Nitrazepam] | – | – | – | 7.3 | -25.3 | 84.2 | 88.9 | 95 | –
22 | C[C@]12CC[C@H](O)CC1=CC[C@@H]1[C@@H]2CC[C@]2(C)C(=O)CC[C@@H]12 [Dehydroepiandrosterone] | – | – | – | – | – | – | – | – | activation at 2 µM [1, 12]: -23.8%; activation at 10 µM [1, 13]: -57.9%; viability at 0.1 µM [2, 9]: 92%; viability at 1 µM [2, 10]: 87.5%; viability at 10 µM [2, 11]: 83.1%
